In patent EP0107350A1, “Sulfon amides” (Beecham Wuelfing GmbH & Co KG, priority 1982, dated 1984):

Tested on: Guinea pigs
Assay: Electrostimulation test (antiarrhythmic effect; voltage needed to induce extrasystoles/arrhythmias by electrostimulation of the right ventricle)
Assay type: in vivo
Settings: anaesthetized Guinea pigs (Urethane 1.2 g/kg i.p.), substances given intraduodenally 30 min before stimulation; 6 treated vs 6 control animals; * = statistically significant p<0.05; dose not given
Procedure: According to the method described by […]. and PAPP, G J., (Naunyn-Schmiedebergs Arch. exp. Path. Pharmak. 245, 70 (1963), arrhythmias are induced in Guinea pigs by electostimulation of the right ventricle of the heart. The animals are anaesthetized with Urethane (1.2 g/kg i.p.) and artificially respired before a needle electrode is inserted in the right ventricle of the heart. Substances are given intraduodenally 30 min before the stimulation. The voltage needed for induction of extrasystoles in 6 control animals (n=6) is compared with that required for induction of arrhythmias in 6 treated animals (n=6). The difference is statistically evaluated by the unpaired t-test (STUDENT). This method was used to evaluate the compounds of the present invention. In Tables 1 and 2, ^* means statistically significant p<0.05.

| Structure (SMILES) | % Increase in Test Voltage |
| --- | --- |
| Cc1cc(C)c(S(=O)(=O)NC(C)CCCN2CCCCC2C)c(C)c1 (stereo not shown) [(1)] | 89.4* % |
| CC(CN1CCCCC1)NS(=O)(=O)c1cc(Cl)c(Cl)cc1Cl.Cl (stereo not shown) [(2), 1-[2-(2,4,5-trichlorobenzenesulphonamido)-propyl] piperidinium chloride] | 29.6* % |
| Cc1cc(C)c(S(=O)(=O)NC(C)CCCN2CC(C)CC2C)c(C)c1 (stereo not shown) [(3)] | 87.7* % |
| CC1CCCCN1CC(O)CNS(=O)(=O)c1cc(Cl)c(Cl)cc1Cl (stereo not shown) [(4)] | 60.6* % |
| Cc1cc(C)c(S(=O)(=O)NCC(O)CN2CCCC2)c(C)c1 (stereo not shown) [(5)] | 29.5* % |
| Cc1cc(C)c(S(=O)(=O)NCC(O)CN2CC(C)CC2C)c(C)c1 (stereo not shown) [(6)] | 12.1* % |
| Cc1cc(C)c(S(=O)(=O)NCC(O)CN2CCCCC2C)c(C)c1 (stereo not shown) [(7)] | 13.4* % |
